Reference: paper PMC3777804 (Journal of computer-aided molecular design, 2013)

These substances were tested on cell-cell fusion of TZM-bl target cells and HL2/3 effector cells (HXB2 Env) (assay: cell-cell fusion, luciferase reporter). Settings: read-out: IC50 CCF, 6 hours, 1% DMSO, results ±50%.
Format: cell-based, HIV-1

Substance | IC50
[Phe]-Trp | 9 µM
[Trp]-Phe | 4 µM
[Trp]-Trp | 19 µM
